According to patent publication US12622910B2, “Inhibitors of Bruton's tyrosine kinase and methods of their use” (Janssen Pharmaceutica NV, priority 2021, dated 2026):
Read-outs that look alike come from different tables or passages of the source.

How the values were obtained:
[1] = Blood-to-plasma concentration ratio; assay type: in vitro ADME; settings: dog, fresh blood
[2] = Metabolic stability in liver microsomes; assay type: in vitro ADME, rat
Method: Additional Data on Preclinical PK Profile—Protein binding of the compound of Formula (III) was studied using an equilibrium dialysis method in plasma from human, cynomolgus monkey, beagle dog, Sprague Dawley rat, CD-1 mouse, and guinea pig at 0.25, 2.5, and 25 μM. […] In human and monkey, the plasma protein binding was concentration dependent. […] Free fraction of the compound of Formula (III) in liver microsomes from various species ranged from 75.1% to 87.9% at 0.25 mg/mL and from 58.9% to 86.5% at 1.0 mg/mL (Table 17). […] In hepatocytes, the compound of Formula (III) turnover followed a similar trend, with T1/2 ranging from 75.3 minutes in monkey to 278.1 minutes in human.

ADRB1 (Adrenergic beta) = ADRB1 (Adrenergic beta) (Homo sapiens, UniProt P08588); test: Receptor panel, Study 3 (agonist/antagonist); assay type: biochemical; settings: n = 2
Method: (§1) RESULTS AND DISCUSSION—Selectivity—The compound of Formula (III) was evaluated in three selectivity panels to assess the potential for off-target pharmacology (Table 8). […] The kinase off-target profile of The compound of Formula (III) was assessed in a full human wild-type panel using radiometric kinase activity assays (KinaseProfiler™ and IC50Profiler™; Eurofins Scientific) (Table 9; FIG. 23). The compound of Formula (III) inhibited 4/278 kinases >50% at 1 micromolar, identifying BTK and the three other kinases having analogous Cys residues with the potential for covalent inhibition (BMX, TEC, BLK). […]. The cellular kinase selectivity of The compound of Formula (III) was established in native Ramos B cell kinome assays (KiNativ™; ActivX) confirmed BTK as the primary target with inhibition of BLK and TEC inhibition detected (Table 10).

D2L (Dopamine 2L) = D2L (Dopamine 2L) (Homo sapiens, UniProt P14416); test: Receptor panel, Study 3 (agonist/antagonist); assay type: biochemical; settings: n = 2
Method: as §1

ADRB2 (Adrenergic beta) = ADRB2 (Adrenergic beta) (Homo sapiens, UniProt P07550); test: Receptor panel, Study 3 (agonist/antagonist); assay type: biochemical; settings: n = 2
Method: as §1

DOP (Opioid delta) = DOP (Opioid delta) (Homo sapiens, UniProt P41143); test: Receptor panel, Study 3 (agonist/antagonist); assay type: biochemical; settings: n = 2; comment 20%
Method: as §1

H1 (Histamine H1) = H1 (Histamine H1) (Homo sapiens, UniProt P35367); test: Receptor panel, Study 3 (agonist/antagonist); assay type: biochemical; settings: n = 2
Method: as §1

[3] = Blood-to-plasma concentration ratio; assay type: in vitro ADME; settings: monkey, fresh blood
CB1 (h) = CB1 (h) (Homo sapiens, UniProt P21554); test: Receptor panel, Study 2; assay type: binding
Method: as §1

MAO-A = MAO-A (Rattus norvegicus, UniProt P21396); test: Receptor panel, Study 2; assay type: binding
Method: as §1

N neuronal α4β2 (h) = N neuronal α4β2 (h) (Homo sapiens, UniProt P17787+P43681); test: Receptor panel, Study 2; assay type: binding
Method: as §1

Ca channel = test: Receptor panel, Study 2; assay type: binding
Method: as §1

AR (h) = AR (h) (Homo sapiens, UniProt P10275); test: Receptor panel, Study 2; assay type: binding
Method: as §1

PDE3A (h) = PDE3A (h) (Homo sapiens, UniProt Q14432); test: Receptor panel, Study 2; assay type: binding
Method: as §1

GR (h) = GR (h) (Homo sapiens, UniProt P04150); test: Receptor panel, Study 2; assay type: binding
Method: as §1

CYP3A = test: CYP induction in plated human hepatocytes, midazolam probe; assay type: in vitro ADME; settings: 48 hours

H1 (Histamine H1), sequence (P35367 whole entry): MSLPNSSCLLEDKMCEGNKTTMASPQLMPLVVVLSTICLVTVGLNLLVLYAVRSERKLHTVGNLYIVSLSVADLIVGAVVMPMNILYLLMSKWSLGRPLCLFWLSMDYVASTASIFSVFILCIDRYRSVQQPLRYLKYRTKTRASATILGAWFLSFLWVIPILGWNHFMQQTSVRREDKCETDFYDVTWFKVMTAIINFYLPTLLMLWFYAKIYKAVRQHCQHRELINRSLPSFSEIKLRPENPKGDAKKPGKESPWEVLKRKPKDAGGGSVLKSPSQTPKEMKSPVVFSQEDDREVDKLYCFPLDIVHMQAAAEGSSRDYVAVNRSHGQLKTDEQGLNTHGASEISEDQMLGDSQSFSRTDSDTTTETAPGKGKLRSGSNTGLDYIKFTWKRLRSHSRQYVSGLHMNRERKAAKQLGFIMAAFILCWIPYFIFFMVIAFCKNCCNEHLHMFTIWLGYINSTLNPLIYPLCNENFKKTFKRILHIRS
N neuronal α4β2 (h), sequence (P43681 29-627 limits assumed): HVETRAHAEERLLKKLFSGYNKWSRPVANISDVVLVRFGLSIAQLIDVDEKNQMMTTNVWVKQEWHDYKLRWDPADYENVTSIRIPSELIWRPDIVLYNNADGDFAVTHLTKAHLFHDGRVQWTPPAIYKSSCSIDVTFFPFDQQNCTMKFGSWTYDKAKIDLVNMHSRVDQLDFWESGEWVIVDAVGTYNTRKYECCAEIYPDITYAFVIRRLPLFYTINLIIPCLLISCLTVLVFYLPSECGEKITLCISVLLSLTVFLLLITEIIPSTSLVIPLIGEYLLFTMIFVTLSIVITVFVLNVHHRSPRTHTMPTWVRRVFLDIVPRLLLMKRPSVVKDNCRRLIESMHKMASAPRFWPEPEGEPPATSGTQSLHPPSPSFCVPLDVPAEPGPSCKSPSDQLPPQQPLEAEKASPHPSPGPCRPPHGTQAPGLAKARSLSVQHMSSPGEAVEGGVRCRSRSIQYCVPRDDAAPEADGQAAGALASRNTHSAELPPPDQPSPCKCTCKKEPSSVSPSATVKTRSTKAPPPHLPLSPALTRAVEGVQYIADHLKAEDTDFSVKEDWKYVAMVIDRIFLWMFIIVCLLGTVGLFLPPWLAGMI
N neuronal α4β2 (h), sequence (P17787 26-502): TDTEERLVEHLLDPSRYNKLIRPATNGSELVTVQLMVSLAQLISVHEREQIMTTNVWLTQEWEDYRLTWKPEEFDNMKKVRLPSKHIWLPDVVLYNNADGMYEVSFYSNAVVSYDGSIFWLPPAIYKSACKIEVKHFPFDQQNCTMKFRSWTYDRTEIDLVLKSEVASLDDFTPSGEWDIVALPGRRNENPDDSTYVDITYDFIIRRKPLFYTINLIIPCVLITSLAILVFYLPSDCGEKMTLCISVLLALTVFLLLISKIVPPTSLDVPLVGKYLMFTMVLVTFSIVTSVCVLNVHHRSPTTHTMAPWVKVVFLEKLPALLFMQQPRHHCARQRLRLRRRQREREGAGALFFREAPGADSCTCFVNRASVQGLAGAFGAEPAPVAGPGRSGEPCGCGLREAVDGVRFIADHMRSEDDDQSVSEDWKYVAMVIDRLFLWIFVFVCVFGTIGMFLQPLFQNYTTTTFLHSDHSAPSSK
CB1 (h), sequence (P21554 whole entry): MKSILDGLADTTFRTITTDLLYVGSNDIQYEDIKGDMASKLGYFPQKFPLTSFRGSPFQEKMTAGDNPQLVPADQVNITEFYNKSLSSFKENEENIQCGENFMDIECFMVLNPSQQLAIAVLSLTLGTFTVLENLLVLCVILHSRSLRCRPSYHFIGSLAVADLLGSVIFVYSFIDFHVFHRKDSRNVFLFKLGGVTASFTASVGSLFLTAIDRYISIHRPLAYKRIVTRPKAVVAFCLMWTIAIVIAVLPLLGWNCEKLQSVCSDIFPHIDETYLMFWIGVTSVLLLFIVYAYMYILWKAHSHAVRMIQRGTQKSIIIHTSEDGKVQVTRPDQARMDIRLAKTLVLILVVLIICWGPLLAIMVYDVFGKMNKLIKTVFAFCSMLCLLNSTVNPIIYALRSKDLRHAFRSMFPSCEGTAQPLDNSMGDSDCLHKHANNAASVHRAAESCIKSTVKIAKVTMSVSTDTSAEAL
DOP (Opioid delta), sequence (P41143 whole entry): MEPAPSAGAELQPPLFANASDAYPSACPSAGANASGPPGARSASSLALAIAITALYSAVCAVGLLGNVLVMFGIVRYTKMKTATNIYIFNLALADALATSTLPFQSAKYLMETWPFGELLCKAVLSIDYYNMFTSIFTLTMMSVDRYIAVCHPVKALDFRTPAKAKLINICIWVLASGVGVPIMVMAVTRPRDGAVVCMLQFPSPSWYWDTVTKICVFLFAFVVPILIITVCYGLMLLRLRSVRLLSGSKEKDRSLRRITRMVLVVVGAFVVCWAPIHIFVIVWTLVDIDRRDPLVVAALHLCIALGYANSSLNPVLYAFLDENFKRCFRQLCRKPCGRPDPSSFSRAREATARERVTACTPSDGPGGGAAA
MAO-A, sequence (P21396 whole entry): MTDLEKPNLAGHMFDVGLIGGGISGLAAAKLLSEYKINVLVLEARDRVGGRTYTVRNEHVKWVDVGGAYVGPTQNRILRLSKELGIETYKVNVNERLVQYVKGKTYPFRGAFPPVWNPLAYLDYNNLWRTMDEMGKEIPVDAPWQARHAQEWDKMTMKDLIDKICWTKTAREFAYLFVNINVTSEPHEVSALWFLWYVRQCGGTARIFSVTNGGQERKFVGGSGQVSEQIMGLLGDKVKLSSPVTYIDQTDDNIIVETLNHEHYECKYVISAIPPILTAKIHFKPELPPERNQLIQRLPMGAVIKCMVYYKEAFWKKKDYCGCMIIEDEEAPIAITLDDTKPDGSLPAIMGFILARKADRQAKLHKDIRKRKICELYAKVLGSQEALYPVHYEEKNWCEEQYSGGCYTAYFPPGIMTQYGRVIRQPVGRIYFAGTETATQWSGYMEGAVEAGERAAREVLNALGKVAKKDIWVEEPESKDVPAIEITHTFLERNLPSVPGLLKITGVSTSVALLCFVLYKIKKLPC
ADRB1 (Adrenergic beta), sequence (P08588 whole entry, species assumed): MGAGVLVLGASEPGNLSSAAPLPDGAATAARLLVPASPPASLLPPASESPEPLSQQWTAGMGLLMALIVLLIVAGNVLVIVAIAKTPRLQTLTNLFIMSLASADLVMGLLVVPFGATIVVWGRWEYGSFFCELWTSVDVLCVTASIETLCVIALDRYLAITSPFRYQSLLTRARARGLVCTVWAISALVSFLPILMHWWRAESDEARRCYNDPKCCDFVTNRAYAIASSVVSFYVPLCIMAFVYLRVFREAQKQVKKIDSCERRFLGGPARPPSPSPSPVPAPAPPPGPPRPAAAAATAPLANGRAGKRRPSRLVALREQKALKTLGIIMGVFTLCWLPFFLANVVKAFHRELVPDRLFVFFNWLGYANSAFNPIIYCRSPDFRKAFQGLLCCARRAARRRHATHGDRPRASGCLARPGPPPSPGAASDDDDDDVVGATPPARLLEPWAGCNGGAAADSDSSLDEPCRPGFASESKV
PDE3A (h), sequence (Q14432 whole entry): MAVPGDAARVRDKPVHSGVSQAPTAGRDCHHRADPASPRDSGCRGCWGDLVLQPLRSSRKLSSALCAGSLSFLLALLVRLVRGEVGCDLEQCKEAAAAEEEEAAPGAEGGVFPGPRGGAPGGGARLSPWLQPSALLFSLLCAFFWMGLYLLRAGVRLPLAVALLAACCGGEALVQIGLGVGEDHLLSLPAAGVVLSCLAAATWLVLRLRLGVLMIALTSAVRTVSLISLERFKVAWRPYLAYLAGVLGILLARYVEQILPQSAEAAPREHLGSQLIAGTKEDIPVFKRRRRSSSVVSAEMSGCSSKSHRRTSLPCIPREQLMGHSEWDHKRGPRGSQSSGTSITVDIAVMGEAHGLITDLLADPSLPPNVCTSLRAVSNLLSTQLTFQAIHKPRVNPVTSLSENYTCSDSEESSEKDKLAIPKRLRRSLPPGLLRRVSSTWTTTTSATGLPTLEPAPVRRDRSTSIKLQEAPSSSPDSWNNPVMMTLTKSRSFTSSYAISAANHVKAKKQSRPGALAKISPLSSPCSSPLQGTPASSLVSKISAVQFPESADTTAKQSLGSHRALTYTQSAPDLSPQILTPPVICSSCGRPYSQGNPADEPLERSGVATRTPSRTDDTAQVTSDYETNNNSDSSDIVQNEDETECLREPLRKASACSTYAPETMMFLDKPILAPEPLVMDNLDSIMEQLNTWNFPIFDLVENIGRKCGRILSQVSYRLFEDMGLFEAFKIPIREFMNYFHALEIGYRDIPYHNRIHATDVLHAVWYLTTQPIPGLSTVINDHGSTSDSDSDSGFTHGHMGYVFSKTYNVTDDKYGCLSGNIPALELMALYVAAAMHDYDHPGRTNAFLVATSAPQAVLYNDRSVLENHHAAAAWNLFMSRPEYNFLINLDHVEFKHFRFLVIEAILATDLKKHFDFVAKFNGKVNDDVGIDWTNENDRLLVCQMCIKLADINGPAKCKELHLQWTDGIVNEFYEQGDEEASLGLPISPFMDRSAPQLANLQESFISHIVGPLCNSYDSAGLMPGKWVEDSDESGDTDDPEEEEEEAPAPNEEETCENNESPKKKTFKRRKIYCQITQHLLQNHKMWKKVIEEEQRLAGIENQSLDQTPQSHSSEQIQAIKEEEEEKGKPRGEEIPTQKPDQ
ADRB2 (Adrenergic beta), sequence (P07550 whole entry, species assumed): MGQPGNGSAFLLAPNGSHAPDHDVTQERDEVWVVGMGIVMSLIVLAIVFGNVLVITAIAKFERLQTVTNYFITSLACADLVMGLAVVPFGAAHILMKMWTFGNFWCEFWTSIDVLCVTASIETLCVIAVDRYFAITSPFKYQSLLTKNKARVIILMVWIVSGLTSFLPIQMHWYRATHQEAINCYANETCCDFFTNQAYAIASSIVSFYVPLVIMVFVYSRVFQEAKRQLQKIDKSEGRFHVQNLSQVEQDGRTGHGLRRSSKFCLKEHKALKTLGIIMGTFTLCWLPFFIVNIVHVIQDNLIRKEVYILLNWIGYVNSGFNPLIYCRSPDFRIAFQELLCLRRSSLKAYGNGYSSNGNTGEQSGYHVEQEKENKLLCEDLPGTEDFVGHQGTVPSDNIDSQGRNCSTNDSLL

**Q.** Which results are given for `C=CC(=O)N[C@H]1CCC[C@H]1NC(=O)c1sc2nccc3c2c1NC(=O)N3c1cnc(CC(C)C)cc1C` (atropisomer, axis not shown) [compound of Formula (III), N-((1R,2S)-2-Acrylamidocyclopentyl)-5-(S)-(6-isobutyl-4-methylpyridin-3-yl)-4-oxo-4,5-dihydro-3H-1-thia-3,5,8-triazaacenaphthylene-2-carboxamide]?
**A.** blood plasma ratio at 1 μM [1]: 0.75; Extraction Ratio, liver microsomes ([2]; Rat): 0.58; microsomal CLint ([2]; rat, liver microsomes): 53.8 µL/min/mg; half-life ([2]; rat, liver microsomes, read-out: T1/2, liver microsomes): 12.9 min; IC50 (ADRB1 (Adrenergic beta)): > 12.5 µM; IC50 (D2L (Dopamine 2L)): > 12.5 µM; IC50 (ADRB2 (Adrenergic beta)): > 12.5 µM; IC50 (DOP (Opioid delta)): > 10 µM; IC50 (H1 (Histamine H1); read-out: Agonist IC50): > 10 µM; IC50 (H1 (Histamine H1); read-out: Antagonist IC50): > 10 µM; blood plasma ratio at 1 μM [3]: 0.69; inhibition at 10 µM (CB1 (h)): < 10%; inhibition at 10 µM (MAO-A): 14%; inhibition at 10 µM (N neuronal α4β2 (h)): < 10%; % Inhibition at 10 μM (Ca channel): — (no inhibition observed); inhibition at 10 µM (AR (h)): < 10%; inhibition at 10 µM (PDE3A (h)): < 10%; inhibition at 10 µM (GR (h)): < 10%; change in CYP3A enzyme activity (CYP3A; 1 μM): −0.8%; change in CYP3A enzyme activity (CYP3A; 10 μM): 0.8%
